The text below walks through data of ChEMBL document CHEMBL5230151, “A review of synthetic bioactive tetrahydro-β-carbolines: A medicinal chemistry perspective” (Eur J Med Chem, 2021).

The test system of assay [1] is Tobacco mosaic virus. The assay is described as follows: In vivo antiviral activity against tobacco mosaic virus assessed as protection activity at 500 ug/ml relative to control. The format is functional. The note with it: dose 500 µg/ml.
In assay [2] the test system is Tobacco mosaic virus. The assay is described as follows: In vivo antiviral activity against tobacco mosaic virus assessed as virus inactivation at 500 ug/ml relative to control. The format is functional. As to conditions: dose 500 µg/ml.
The test system of assay [3] is Tobacco mosaic virus. The assay is described as follows: In vivo antiviral activity against tobacco mosaic virus assessed as curative activity at 500 ug/ml relative to control. The format is functional. The note with it: dose 500 µg/ml.
The target in assay [4] is T1, Acetylcholinesterase (Electrophorus electricus, UniProt O42275). Kind of assay: Inhibition of electric eel AChE using acetylthiocholine iodide as substrate.
T1 sequence (O42275 whole entry): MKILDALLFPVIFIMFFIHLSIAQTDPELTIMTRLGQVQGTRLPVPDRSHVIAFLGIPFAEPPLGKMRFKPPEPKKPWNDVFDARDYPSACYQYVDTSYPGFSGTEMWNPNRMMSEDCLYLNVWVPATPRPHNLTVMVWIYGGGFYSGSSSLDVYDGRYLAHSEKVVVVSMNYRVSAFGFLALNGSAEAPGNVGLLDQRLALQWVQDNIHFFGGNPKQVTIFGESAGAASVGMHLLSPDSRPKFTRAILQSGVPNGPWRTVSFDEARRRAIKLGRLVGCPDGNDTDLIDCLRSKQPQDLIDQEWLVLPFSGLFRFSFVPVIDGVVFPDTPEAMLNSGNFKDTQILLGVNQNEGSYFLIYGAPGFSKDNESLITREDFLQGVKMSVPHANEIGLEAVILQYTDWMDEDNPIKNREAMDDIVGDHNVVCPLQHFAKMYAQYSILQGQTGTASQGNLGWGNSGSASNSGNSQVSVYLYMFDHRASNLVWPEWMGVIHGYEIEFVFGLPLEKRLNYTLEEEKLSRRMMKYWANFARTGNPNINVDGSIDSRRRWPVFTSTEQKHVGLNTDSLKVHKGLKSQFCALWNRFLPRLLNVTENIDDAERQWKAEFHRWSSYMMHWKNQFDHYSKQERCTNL
The nature of assay [5]: Inhibition of equine serum BuChE using butyrylthiocholine chloride as substrate.
In assay [6] the target is T2, Protein deacetylase HDAC6 (Homo sapiens, UniProt Q9UBN7).
T2 sequence (Q9UBN7 whole entry): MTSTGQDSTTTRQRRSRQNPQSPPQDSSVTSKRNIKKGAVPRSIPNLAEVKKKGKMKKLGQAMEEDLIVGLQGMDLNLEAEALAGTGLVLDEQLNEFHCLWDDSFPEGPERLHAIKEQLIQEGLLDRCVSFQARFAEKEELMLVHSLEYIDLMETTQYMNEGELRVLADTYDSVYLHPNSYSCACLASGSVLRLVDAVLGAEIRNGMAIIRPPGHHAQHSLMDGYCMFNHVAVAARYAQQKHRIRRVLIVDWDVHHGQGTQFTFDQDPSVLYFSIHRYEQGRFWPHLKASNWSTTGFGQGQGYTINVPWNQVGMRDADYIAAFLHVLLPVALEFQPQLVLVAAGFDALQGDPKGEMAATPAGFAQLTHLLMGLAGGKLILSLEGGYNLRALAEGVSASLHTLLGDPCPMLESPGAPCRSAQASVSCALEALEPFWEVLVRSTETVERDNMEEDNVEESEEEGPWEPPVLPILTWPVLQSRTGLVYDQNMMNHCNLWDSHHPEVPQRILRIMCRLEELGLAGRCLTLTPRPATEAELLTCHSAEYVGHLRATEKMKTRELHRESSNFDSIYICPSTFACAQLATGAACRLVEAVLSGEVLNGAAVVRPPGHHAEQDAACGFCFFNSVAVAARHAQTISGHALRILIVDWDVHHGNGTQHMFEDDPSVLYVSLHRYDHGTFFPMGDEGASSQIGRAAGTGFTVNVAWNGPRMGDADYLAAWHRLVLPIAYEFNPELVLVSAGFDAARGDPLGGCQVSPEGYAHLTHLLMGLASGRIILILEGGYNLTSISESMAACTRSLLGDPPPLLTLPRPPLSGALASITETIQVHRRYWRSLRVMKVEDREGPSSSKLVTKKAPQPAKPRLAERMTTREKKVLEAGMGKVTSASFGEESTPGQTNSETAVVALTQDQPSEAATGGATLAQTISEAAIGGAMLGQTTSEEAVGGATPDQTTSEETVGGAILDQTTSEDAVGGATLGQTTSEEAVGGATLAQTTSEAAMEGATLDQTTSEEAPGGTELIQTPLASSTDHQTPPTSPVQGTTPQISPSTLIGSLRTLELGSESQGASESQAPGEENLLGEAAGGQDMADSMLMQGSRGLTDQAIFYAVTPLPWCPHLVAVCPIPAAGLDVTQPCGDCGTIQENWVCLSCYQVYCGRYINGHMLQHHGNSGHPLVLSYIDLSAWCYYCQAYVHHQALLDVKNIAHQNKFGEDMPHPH
The assay is described as follows: Inhibition of human HDAC6.

Assay [7] deals with T3, Kinesin-like protein KIF11 (Homo sapiens, UniProt P52732).
T3 sequence (P52732 whole entry): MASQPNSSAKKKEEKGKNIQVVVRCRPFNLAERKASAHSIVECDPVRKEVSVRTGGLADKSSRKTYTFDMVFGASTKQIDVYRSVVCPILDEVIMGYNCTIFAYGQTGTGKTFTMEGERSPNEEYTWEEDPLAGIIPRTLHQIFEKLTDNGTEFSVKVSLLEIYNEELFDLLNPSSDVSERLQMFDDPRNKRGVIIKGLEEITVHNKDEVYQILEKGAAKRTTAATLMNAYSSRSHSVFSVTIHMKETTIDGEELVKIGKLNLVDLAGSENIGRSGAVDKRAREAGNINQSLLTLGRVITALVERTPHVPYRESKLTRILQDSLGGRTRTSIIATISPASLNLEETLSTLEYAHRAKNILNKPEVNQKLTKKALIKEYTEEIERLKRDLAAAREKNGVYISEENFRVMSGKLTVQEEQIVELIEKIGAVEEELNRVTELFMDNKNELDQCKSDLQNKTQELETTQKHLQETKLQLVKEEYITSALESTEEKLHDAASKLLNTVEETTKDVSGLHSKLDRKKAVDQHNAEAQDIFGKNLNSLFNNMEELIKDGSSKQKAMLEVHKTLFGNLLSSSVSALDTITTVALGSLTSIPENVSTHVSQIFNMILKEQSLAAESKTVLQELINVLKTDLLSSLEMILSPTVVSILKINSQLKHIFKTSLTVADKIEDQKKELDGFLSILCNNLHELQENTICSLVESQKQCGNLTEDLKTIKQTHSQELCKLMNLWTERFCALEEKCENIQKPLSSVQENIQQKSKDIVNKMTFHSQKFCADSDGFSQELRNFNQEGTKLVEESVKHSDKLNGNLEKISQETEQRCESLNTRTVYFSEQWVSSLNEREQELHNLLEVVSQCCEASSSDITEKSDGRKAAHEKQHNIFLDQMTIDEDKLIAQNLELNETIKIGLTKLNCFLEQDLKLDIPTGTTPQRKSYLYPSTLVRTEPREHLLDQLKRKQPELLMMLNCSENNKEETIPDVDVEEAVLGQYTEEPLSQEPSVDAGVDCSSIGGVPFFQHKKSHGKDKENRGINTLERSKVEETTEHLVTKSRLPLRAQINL
The assay is described as follows: Inhibition of Eg5 ATPase activity (unknown origin).

The next assay has as its system Plasmodium berghei. Kind of assay: Antiplasmodial activity against Plasmodium berghei assessed as inhibition of schizont maturation at 5 ug/ml relative to control. Type of assay: functional.
For assay [8], the target named is T4, cGMP-specific 3',5'-cyclic phosphodiesterase (Homo sapiens, UniProt O76074). The assay is described as follows: Inhibition of human PDE5.
In assay [9] the test system is Gaeumannomyces graminis. Kind of assay: Antifungal activity against Gaeumannomyces graminis at 10 mg/ml relative to control. Type of assay: functional.
Assay [10] deals with Amyloid-beta precursor protein (Homo sapiens) (UniProt P05067). Kind of assay: Inhibition of self-induced amyloid beta (1 to 42 ) (unknown origin) aggregation at 20 uM measured after 24 hrs by thioflavin-T fluorescence method relative to control.
Chain of Amyloid-beta precursor protein (Homo sapiens) (P05067 whole entry): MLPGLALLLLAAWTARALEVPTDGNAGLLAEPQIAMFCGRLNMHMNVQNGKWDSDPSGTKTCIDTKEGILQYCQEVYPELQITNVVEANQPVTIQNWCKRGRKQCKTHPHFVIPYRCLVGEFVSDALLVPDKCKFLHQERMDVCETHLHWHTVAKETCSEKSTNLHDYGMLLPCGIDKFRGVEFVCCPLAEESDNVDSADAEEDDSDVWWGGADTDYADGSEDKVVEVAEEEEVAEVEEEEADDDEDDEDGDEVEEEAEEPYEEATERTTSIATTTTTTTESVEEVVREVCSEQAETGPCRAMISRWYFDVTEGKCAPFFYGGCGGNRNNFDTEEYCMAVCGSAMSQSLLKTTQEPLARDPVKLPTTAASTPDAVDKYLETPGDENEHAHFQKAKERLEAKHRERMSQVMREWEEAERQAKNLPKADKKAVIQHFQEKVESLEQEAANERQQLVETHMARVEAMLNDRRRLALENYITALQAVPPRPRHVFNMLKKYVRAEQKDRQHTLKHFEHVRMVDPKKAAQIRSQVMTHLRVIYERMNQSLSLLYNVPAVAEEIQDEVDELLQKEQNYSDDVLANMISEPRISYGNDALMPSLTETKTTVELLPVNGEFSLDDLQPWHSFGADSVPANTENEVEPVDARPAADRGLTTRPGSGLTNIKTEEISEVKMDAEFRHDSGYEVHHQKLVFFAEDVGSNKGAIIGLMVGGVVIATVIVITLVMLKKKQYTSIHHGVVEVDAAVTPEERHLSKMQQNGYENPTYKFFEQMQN
The target in assay [11] is T4, cGMP-specific 3',5'-cyclic phosphodiesterase. Kind of assay: Inhibition of human PDE5A using fluorescence-labelled substrate.
The target in the next assay is Histone deacetylase 1 (Homo sapiens, UniProt Q13547). Kind of assay: Inhibition of human HDAC1.
Chain of Histone deacetylase 1 (Q13547 whole entry): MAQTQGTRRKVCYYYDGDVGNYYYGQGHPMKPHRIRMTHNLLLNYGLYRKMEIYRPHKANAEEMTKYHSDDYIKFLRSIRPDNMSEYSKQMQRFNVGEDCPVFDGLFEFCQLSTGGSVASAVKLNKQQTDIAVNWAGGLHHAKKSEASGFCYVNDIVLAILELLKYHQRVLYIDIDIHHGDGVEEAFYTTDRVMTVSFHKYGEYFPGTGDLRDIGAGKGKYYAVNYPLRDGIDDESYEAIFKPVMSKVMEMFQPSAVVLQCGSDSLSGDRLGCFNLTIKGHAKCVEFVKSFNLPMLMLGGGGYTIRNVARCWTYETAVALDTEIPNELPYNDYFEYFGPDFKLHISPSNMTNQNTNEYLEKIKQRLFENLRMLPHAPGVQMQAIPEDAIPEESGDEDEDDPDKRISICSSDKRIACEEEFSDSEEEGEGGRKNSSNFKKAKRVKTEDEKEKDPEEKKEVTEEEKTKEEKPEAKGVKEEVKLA
Assay [12] is described as follows: Inhibition of Plasmodium falciparum IspD.
Assay [13] has as its target T4, cGMP-specific 3',5'-cyclic phosphodiesterase. Kind of assay: Inhibition of PDE5 (unknown origin).
The nature of assay [14]: Inhibition of equine serum BuChE using S-butylthiocholine iodide as substrate measured after 20 mins by Ellmans method. Details: species or system […]. (Ellman's reagent forms a yellow product with free thiols.)
The target of assay [15] is T1, Acetylcholinesterase. Kind of assay: Inhibition of electric eel AChE using acetylthiocholine iodide as substrate measured after 20 mins by Ellmans method.
Assay [16] relates to Gaeumannomyces graminis. Kind of assay: Antifungal activity against Gaeumannomyces graminis. The format is functional, organism-based.

In brackets after ≈: the same amount, converted by molar mass.

In the case of `CC1N[C@@H](C(=O)N/N=C/C2CCCCC2)Cc2c1[nH]c1ccccc21` (stereo partly drawn), the results for the Activity in the assay with Tobacco mosaic virus [1], in the assay with Tobacco mosaic virus [2] and with Tobacco mosaic virus [3] were 69.2%, 75.8% and 62.8%, respectively.

In general, IC50 refers to the concentration that inhibits the measured activity by half. A higher IC50 goes with weaker potency. As for `CC1c2[nH]c3ccccc3c2CCN1C(=O)/C=C/c1ccc(O)c(O)c1` (stereo not drawn), the figures for the IC50 (on Acetylcholinesterase [4]; in [5]) were 21300 nM and 1320 nM, respectively.

As for `CN1C(=O)C2CN(Cc3c2c2ccccc2n3Cc2ccc(C(=O)NO)cc2)C1=O` (stereo not drawn), the half-maximal inhibitory concentration (IC50) in assay [6] stood at 0.7 nM.

As to `CNCC(=O)N[C@@H](CO)C(=O)N[C@H]1[C@H](O)[C@@H](O)[C@H](n2ccc(N)nc2=O)O[C@@H]1C(N)=O` [NINGNANMYCIN], the Activity was 55% in the assay on Tobacco mosaic virus [1], 57.3% with Tobacco mosaic virus [2] and 54.2% with Tobacco mosaic virus [3].

The compound `CCCCN1C(=O)[C@@H]2Cc3c([nH]c4ccccc34)[C@@H](c3cccc(O)c3)N2C1=O` showed an IC50 in [7] of 4300 nM.

For orientation: inhibition means how much of the control response was suppressed. As for `COC(=O)[C@@H]1Cc2c([nH]c3ccccc23)[C@@H](c2cccnc2)N1`, the inhibition at 5 µg/mL in the assay on Plasmodium berghei was 86.2%.

`CCOC(=O)[C@H]1Cc2c([nH]c3ccccc23)[C@H](C)N1`: the Activity is recorded as 47.9% in the assay on Tobacco mosaic virus [1], 50.4% with Tobacco mosaic virus [2] and 43.9% with Tobacco mosaic virus [3].

For `COC(=O)c1cc2c(cn1)[nH]c1ccccc12` [BETA-CCM], in [8], the 50% inhibitory concentration (IC50) is 800 nM.

`C[C@@H]1N[C@H](C(=O)Nc2ccccc2C2=N[C@@H](C)CO2)Cc2c1[nH]c1ccccc21` registered an inhibition at 10000 µg/mL with Gaeumannomyces graminis [9] of 65.8%.

Consider `CC1N[C@H](C(=O)N/N=C/c2ccc(Cl)cc2)Cc2c1[nH]c1ccccc21` (stereo partly drawn), for which the Activity in the assay with Tobacco mosaic virus [1] was 68.1%; in the assay with Tobacco mosaic virus [2], 66.9%; in the assay on Tobacco mosaic virus [3] it was 63.2%.

With `CC1N[C@@H](C(=O)N/N=C/c2ccc(Cl)cc2)Cc2c1[nH]c1ccccc21` (stereo partly drawn), the Activity is given as 64.2% in the assay with Tobacco mosaic virus [1], 70.4% with Tobacco mosaic virus [2] and 71.5% with Tobacco mosaic virus [3].

In the case of `COc1ccc2[nH]c3c(c2c1)CCN(C(=O)/C=C/c1ccc(O)c(O)c1)C3C` (stereo not drawn), the inhibition in [10] turned out to be 65%. Also, the IC50 against Acetylcholinesterase [4] came out at 75300 nM; in [5], 6470 nM.

`O=C(Cc1cnc(N2CCC(CN3CC(=O)N4[C@H](c5ccc6c(c5)OCO6)c5[nH]c6ccccc6c5C[C@@H]4C3=O)CC2)nc1)NO`: the IC50 was 653 nM in assay [11], 197 nM against Histone deacetylase 1 and 239 nM in assay [6].

`O=C(O)[C@@H]1Cc2c([nH]c3ccccc23)[C@@H](c2ccc(Cl)cc2Cl)N1` yielded an IC50 in [12] of 210 nM.

As to `COc1cccc2c1C(=O)N1CCc3c([nH]c4cccc(OC)c34)[C@@H]1C2C` (stereo partly drawn), the IC50 in [13] amounted to 35 nM.

In the case of `c1ccc2c(NCCCCCCCN3CCc4c([nH]c5ccccc45)C3)c3c(nc2c1)CCCC3`, the IC50 in [14] was found to be 3.16 nM; against Acetylcholinesterase [15], 17.4 nM.

Take `CCCCOC(=O)[C@H]1Cc2c([nH]c3ccccc23)[C@H](C)N1`: the Activity in the assay on Tobacco mosaic virus [1] is given as 43.2%; in the assay on Tobacco mosaic virus [2], 51.3%; in the assay with Tobacco mosaic virus [3], 42.2%.

As for `COC(=O)[C@@H]1Cc2c([nH]c3ccccc23)[C@@H](c2ccc3c(c2)OCO3)N1`, the inhibition at 5 µg/mL with Plasmodium berghei is 71.8%.

With `O=C(CCCCN1CCc2c([nH]c3ccccc23)C1)Oc1ccc(/C=C2/CCc3nc4ccccc4c(=O)n32)cc1`, the IC50 against Acetylcholinesterase [15] is 1.08 nM.

In the case of `C[C@@H]1N[C@@H](C(=O)NN)Cc2c1[nH]c1ccccc21`, the figures for the Activity with Tobacco mosaic virus [1], in the assay on Tobacco mosaic virus [2] and in the assay on Tobacco mosaic virus [3] were 59.5%, 64.2% and 57.2%, respectively.

For orientation: EC50 means the concentration giving half of the maximal effect. In the assay on Gaeumannomyces graminis [16], `C[C@@H]1COC(c2ccccc2NC(=O)[C@@H]2Cc3c([nH]c4ccccc34)[C@H](C)N2)=N1` registered an EC50 of 3.53 µg/mL (≈ 9.09 µM). Besides, in the assay with Gaeumannomyces graminis [9], testing at 10000 µg/mL gave an inhibition of 72.2%.

`O=C(CCCCCCN1CC(=O)N2[C@H](c3ccc(Br)cc3)c3[nH]c4ccccc4c3C[C@@H]2C1=O)NO` came in with an IC50 in assay [11] of 46 nM.
